Among the data in patent US8003649B2 (AstraZeneca AB, priority 2007, dated 2011) are DC50 values, retold here.

SMILES strings stand for the structures.

The target of the assay is T1, Androgen Receptor (AR) (Homo sapiens, UniProt P10275, T878A).
T1 construct: cell based immuno-fluorescence assay using the LNCaP prostate epithelial cell line; endogenous in cells; host or cells: LNCaP clone FGC (ATCC CRL-1740)
T1 sequence (P10275 1-920 T878A): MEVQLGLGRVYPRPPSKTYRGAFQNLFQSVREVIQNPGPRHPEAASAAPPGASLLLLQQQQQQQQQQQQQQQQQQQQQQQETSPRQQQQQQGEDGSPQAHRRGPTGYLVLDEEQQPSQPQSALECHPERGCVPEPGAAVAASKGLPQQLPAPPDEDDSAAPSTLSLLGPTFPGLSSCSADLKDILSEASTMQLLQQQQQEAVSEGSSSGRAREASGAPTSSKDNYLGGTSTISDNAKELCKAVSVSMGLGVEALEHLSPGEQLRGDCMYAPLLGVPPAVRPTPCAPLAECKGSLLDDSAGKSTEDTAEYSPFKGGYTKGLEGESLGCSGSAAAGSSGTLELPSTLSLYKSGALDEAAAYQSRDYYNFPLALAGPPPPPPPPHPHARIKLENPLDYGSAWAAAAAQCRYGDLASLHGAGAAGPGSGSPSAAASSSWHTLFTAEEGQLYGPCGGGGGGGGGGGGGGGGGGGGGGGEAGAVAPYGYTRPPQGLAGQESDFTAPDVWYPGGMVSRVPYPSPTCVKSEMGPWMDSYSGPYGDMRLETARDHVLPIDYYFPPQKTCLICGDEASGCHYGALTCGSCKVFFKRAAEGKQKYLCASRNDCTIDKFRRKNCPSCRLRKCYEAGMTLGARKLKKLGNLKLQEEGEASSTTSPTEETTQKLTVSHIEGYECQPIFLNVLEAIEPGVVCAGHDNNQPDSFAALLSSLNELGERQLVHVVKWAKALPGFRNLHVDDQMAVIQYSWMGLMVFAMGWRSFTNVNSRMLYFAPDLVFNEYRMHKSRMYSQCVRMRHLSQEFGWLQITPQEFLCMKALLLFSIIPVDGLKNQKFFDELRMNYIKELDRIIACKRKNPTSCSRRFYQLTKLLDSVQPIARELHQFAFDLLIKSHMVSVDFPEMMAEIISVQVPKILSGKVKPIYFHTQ
The assay can be described thus: LNCaP Androgen Receptor Down-regulation Cell Assay (immunofluorescence end point). Type of assay: cell-based. Particulars: LNCaP prostate carcinoma cells, compound incubation 20-22 hours, 50% reduction of the AR signal; read-out: Androgen Receptor Down-regulation Assay (a) IC50/μM. In a few lines:
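AR loss reported as IC50 from curve fits of fluorescence dose-response data, with AR immunostained and read by laser-scanning cytometry. Compound exposure was 20-22 h at 37° C in LNCaP cells grown in 5% charcoal-stripped FBS and plated overnight beforehand.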
With `O=C(CCCN1CCCC1)Nc1cccc(C2CCN(c3ccc4nnc(C(F)(F)F)n4n3)CC2)c1` [Example 660], the DC50 worked out at 0.63 µM.
The value for `O=C(CCCN1CCOCC1)Nc1cccc(C2CCN(c3ccc4nnc(C(F)(F)F)n4n3)CC2)c1` [Example 661] was 0.65 µM; that for `COCCCC(=O)Nc1cccc(C2CCN(c3ccc4nnc(C(F)(F)F)n4n3)CC2)c1` [Example 662, 4-methoxy-N-[3-[1-(3-(trifluoromethyl)-[1,2,4]triazolo[4,3-b]pyridazin-6-yl)piperidin-4-yl]phenyl]butanamide] was 5.4 µM; that for `CN1CCC(C(=O)Nc2ccc(C3CCN(c4ccc5nnc(C(F)(F)F)n5n4)CC3)cc2)CC1` [Example 663] was 2.7 µM.
The value for `COCC(=O)Nc1ccc(C2CCN(c3ccc4nnc(C(F)(F)F)n4n3)CC2)cc1` [Example 664] was 3.6 µM.
Under `CN1CCN(CCCC(=O)Nc2ccc(C3CCN(c4ccc5nnc(C(F)(F)F)n5n4)CC3)cc2)CC1` [Example 666] stands 0.94 µM.
As for `O=C(CCCN1CCCC1)Nc1ccc(C2CCN(c3ccc4nnc(C(F)(F)F)n4n3)CC2)cc1` [Example 667], the DC50 stood at 1 µM.
The value for `O=C(CCCN1CCOCC1)Nc1ccc(C2CCN(c3ccc4nnc(C(F)(F)F)n4n3)CC2)cc1` [Example 668] was 1.1 µM; that for `COCCCC(=O)Nc1ccc(C2CCN(c3ccc4nnc(C(F)(F)F)n4n3)CC2)cc1` [Example 669] was 0.6 µM; that for `CN(C)CCCOc1cccc(C2CCN(c3ccc4nnc(C(F)(F)F)n4n3)CC2)c1` [Example 670] was 0.67 µM.
As for `FC(F)(F)c1nnc2ccc(N3CCC(c4cccc(OCCN5CCCC5)c4)CC3)nn12` [Example 671], the DC50 amounted to 1.6 µM.
The value for `FC(F)(F)c1nnc2ccc(N3CCC(c4cccc(OCCN5CCNCC5)c4)CC3)nn12` [Example 672] was 0.58 µM; that for `FC(F)(F)c1nnc2ccc(N3CCC(c4cccc(OCCCN5CCNCC5)c4)CC3)nn12` [Example 673] was 0.73 µM; that for `Cc1cc(COc2cccc(C3CCN(c4ccc5nnc(C(F)(F)F)n5n4)CC3)c2)no1` [Example 674] was 1.1 µM.
The value for `CN(C)CCOc1cccc(C2CCN(c3ccc4nnc(C(F)(F)F)n4n3)CC2)c1` [Example 675] was 1.5 µM.
Under `FC(F)(F)c1nnc2ccc(N3CCC(c4cccc(OCCN5CCOCC5)c4)CC3)nn12` [Example 676] stands 0.56 µM.
On to `CN1CCC(Oc2cccc(C3CCN(c4ccc5nnc(C(F)(F)F)n5n4)CC3)c2)CC1` [Example 677], for which the DC50 came out at 4.5 µM.
The value for `FC(F)(F)c1nnc2ccc(N3CCC(c4cccc(OCc5cnco5)c4)CC3)nn12` [Example 680] was 0.6 µM; that for `Cn1nccc1CCOc1cccc(C2CCN(c3ccc4nnc(C(F)(F)F)n4n3)CC2)c1` [Example 682] was 0.58 µM; that for `COCCOc1cccc(C2CCN(c3ccc4nnc(C(F)(F)F)n4n3)CC2)c1` [Example 684] was 0.69 µM.
Take `CN(CCO)C(=O)c1cccc(OC2CCN(c3ccc4nnc(C(F)(F)F)n4n3)CC2)c1` [Example 685]: the DC50 amounted to 5.7 µM.
Under `O=C(NCCN1CCCC1)c1cccc(OC2CCN(c3ccc4nnc(C(F)(F)F)n4n3)CC2)c1` [Example 686] stands 4.2 µM.
The value for `CN1CCN(C(=O)c2cccc(OC3CCN(c4ccc5nnc(C(F)(F)F)n5n4)CC3)c2)CC1` [Example 687] was 3.8 µM; that for `O=C(c1cccc(OC2CCN(c3ccc4nnc(C(F)(F)F)n4n3)CC2)c1)N1CCNCC1` [Example 688] was 6.6 µM; that for `COCCNC(=O)c1cccc(OC2CCN(c3ccc4nnc(C(F)(F)F)n4n3)CC2)c1` [Example 689] was 4.1 µM.
Under `O=C(c1cccc(OC2CCN(c3ccc4nnc(C(F)(F)F)n4n3)CC2)c1)N1CC[C@@H](O)C1` [Example 691] stands over 28 µM; under `O=C(c1cccc(OC2CCN(c3ccc4nnc(C(F)(F)F)n4n3)CC2)c1)N1CCCC1` [Example 692], 4.2 µM.
On to `O=C(c1cccc(OC2CCN(c3ccc4nnc(C(F)(F)F)n4n3)CC2)c1)N1CCOCC1` [Example 693], for which the DC50 worked out at 2.3 µM.
Turning to `CNC(=O)c1cccc(OC2CCN(c3ccc4nnc(C(F)(F)F)n4n3)CC2)c1` [Example 694], the DC50 turned out to be 3.2 µM.
Take `CCNC(=O)c1cccc(OC2CCN(c3ccc4nnc(C(F)(F)F)n4n3)CC2)c1` [Example 695]: the DC50 is 3.3 µM.
The value for `CN(C)CCNC(=O)c1cccc(OC2CCN(c3ccc4nnc(C(F)(F)F)n4n3)CC2)c1` [Example 696] was 4.2 µM.
Under `O=C(NCCO)c1cccc(OC2CCN(c3ccc4nnc(C(F)(F)F)n4n3)CC2)c1` [Example 697] stands over 22 µM.
As for `O=C(NCCN1CCOCC1)c1cccc(OC2CCN(c3ccc4nnc(C(F)(F)F)n4n3)CC2)c1` [Example 698], the DC50 was determined as 5.6 µM.
Under `COCCN(C)C(=O)c1cccc(OC2CCN(c3ccc4nnc(C(F)(F)F)n4n3)CC2)c1` [Example 699] stands 2.1 µM; under `O=C(c1cccc(OC2CCN(c3ccc4nnc(C(F)(F)F)n4n3)CC2)c1)N1CC[C@H](O)C1` [Example 700], 7.1 µM.
On to `Cc1cc(CNC(=O)c2cccc(OC3CCN(c4ccc5nnc(C(F)(F)F)n5n4)CC3)c2)no1` [Example 702], for which the DC50 was over 12 µM.
The value for `CN1CCC(NC(=O)c2cccc(OC3CCN(c4ccc5nnc(C(F)(F)F)n5n4)CC3)c2)CC1` [Example 703] was 5.5 µM; that for `CN1CCN(CCNC(=O)c2cccc(OC3CCN(c4ccc5nnc(C(F)(F)F)n5n4)CC3)c2)CC1` [Example 704] was 4.2 µM; that for `O=C(NCCn1cccn1)c1cccc(OC2CCN(c3ccc4nnc(C(F)(F)F)n4n3)CC2)c1` [Example 705] was 5.3 µM.
Under `Cn1ccc(CNC(=O)c2cccc(OC3CCN(c4ccc5nnc(C(F)(F)F)n5n4)CC3)c2)n1` [Example 706] stands 2.9 µM.
Under `O=C(NCc1cocn1)c1cccc(OC2CCN(c3ccc4nnc(C(F)(F)F)n4n3)CC2)c1` [Example 707] stands 7.9 µM; under `CN1CCN(CC(=O)Nc2ccc(C3CCN(c4ccc5nnc(C(F)(F)F)n5n4)CC3)cc2)CC1` [Example 708, 2-(4-methylpiperazin-1-yl)-N-[4-[1-[3-(trifluoromethyl)[1,2,4]triazolo[4,3-b]pyridazin-6-yl]piperidin-4-yl]phenyl]acetamide], 6.2 µM; under `O=C(CN1CCCC1)Nc1ccc(C2CCN(c3ccc4nnc(C(F)(F)F)n4n3)CC2)cc1` [Example 709], 1.7 µM.
As for `O=C(CN1CCOCC1)Nc1ccc(C2CCN(c3ccc4nnc(C(F)(F)F)n4n3)CC2)cc1` [Example 710], the DC50 was 2.1 µM.
The value for `CN1CCN(CC(=O)Nc2cccc(C3CCN(c4ccc5nnc(C(F)(F)F)n5n4)CC3)c2)CC1` [Example 711] was 2.5 µM; that for `O=C(CN1CCCC1)Nc1cccc(C2CCN(c3ccc4nnc(C(F)(F)F)n4n3)CC2)c1` [Example 712] was 3 µM; that for `O=C(CN1CCOCC1)Nc1cccc(C2CCN(c3ccc4nnc(C(F)(F)F)n4n3)CC2)c1` [Example 713] was 0.81 µM.
In the case of `FC(F)(F)c1nnc2ccc(N3CCC(Oc4ncc(Cl)cn4)CC3)nn12` [Example 714], the DC50 was over 9.9 µM.
The value for `FC(F)(F)c1nnc2ccc(N3CCC(Oc4cccc(Cl)n4)CC3)nn12` [Example 716] was 0.81 µM; that for `FC(F)(F)c1nnc2ccc(N3CCC(Oc4cccnc4Br)CC3)nn12` [Example 717] was 2.9 µM.
The value for `FC(F)(F)c1nnc2ccc(N3CCC(Oc4cccnc4)CC3)nn12` [Example 718] was 3.6 µM; that for `FC(F)(F)c1ccc(OC2CCN(c3ccc4nnc(C(F)(F)F)n4n3)CC2)nc1` [Example 719] was 3.5 µM.
The value for `FC(F)(F)c1nnc2ccc(N3CCC(Oc4ccc(Cl)nc4)CC3)nn12` [Example 720] was 2.7 µM.
On to `FC(F)(F)c1nnc2ccc(N3CCC(Oc4ccc(Br)cn4)CC3)nn12` [Example 721], for which the DC50 came to 2.9 µM.
The value for `FC(F)(F)c1nnc2ccc(N3CCC(Oc4cncc(Br)c4)CC3)nn12` [Example 722] was 4.1 µM.
The value for `FC(F)(F)c1nnc2ccc(N3CCC(Oc4ncccc4Br)CC3)nn12` [Example 723] was 0.9 µM.
The value for `FC(F)(F)c1nnc2ccc(N3CCC(Oc4ccc(Cl)cc4)CC3)nn12` [Example 724] was 0.69 µM.
